Source: patent US20030104507A1, “Method for detection of ATP” (priority 2001, published 2003)

System: ATPase activity endogenous to L929 cell lysate
Assay: Detergent inhibition of ATPase endogenous to L929 cell lysate (ATP remaining by luciferase luminescence, 22° C.)
Type: biochemical
Set-up: key to Relative ATPase Activity, slope det/slope lysate: slope with detergent / slope without; ≥1.0 = 100% activity, 0.5 = 50%
Method: Three separate detergents in each of four detergent classes were tested: anionic [SDS (Sodium dodecyl sulfate), Bioterge (an α olefin sulfate), and sodium deoxycholate], nonionic [TRITON X-100, BigCHAP (N,N-bis(3-D-Gluconamidopropyl)cholamide) and THESIT (polyethylene glycol 400 dodecyl ether, Fluka, #88315)], cationic [BDDABr (Benzyldimethyldodecylammonium bromide), CTAB (Cetyltrimethylammonium bromide), and DTAB (dodecyltrimethylammonium bromide)] and zwitterionic [CHAPS (3[(3-Cholamidopropyl)dimethylammonio]propanesulfonic acid), CHAPSO (3-([3-Cholamidopropyl]dimethylammonio)-2-hydroxy-1-propanesulfonate), and Sulfobetaine 3-10 ([…]-N,N-dimethyl-3-ammonio-1-propanesulfonate)]. Detergents were obtained from Sigma, Fluka and Aldrich.
L929 cells (ATCC CCL-1; 1.5×10^5 cells/ml) in F12/DMEM (Hyclone, SH30023) containing 10% horse serum (Hyclone, SH30074) were frozen and thawed for four cycles to create a cell lysate. Then 50 μl of stock detergent solutions [10%, 5.0%, 1.0%, and 0.5% (w/v)] were separately added to 450 μl cell lysate, creating a final detergent concentration in the cell lysate sample of 1.0%, 0.5%, 0.1%, and 0.05%, respectively (these percentage values are those used in Tables D and E herein below). Control samples contained either lysate only or 1.0 μM ATP in 15 mM HEPES buffer (pH 7.5). All samples were incubated at 22° C. (room temperature) for the duration of the experiment.
At various timepoints, 20 μl from each sample/detergent mixture was added to a 96-well luminometer plate in triplicate, and then 100 μl of a solution (“luciferase-luciferin” or “L/L reagent”) containing 25 mM HEPES buffer (pH 7.5), 40 μg luciferase enzyme LucPpe2m146 (Promega, E140), 100 μM luciferin (Promega), and 10 mM MgSO4 was added to each well. The L/L reagent was stored at 4° C. for the duration of the experiment and then allowed to reach ambient temperature just before assaying. After mixing the contents of the plate, light output was measured with a Dynex MLX microtiter plate luminometer (Chantilly, Va.), 0.5 second reads per well with the first measurement taken five minutes after the detergent solution was combined with the sample. The average relative light units and the timepoint at which it was measured (rlu; Table D) and percent of remaining luciferase activity at the timepoint (Table E) are reported; controls were run with each set of experimental conditions as indicated. The cationic and anionic detergents were assayed on one day with one set of controls. The zwitterionic and nonionic detergents were assayed on a separate day with a separate set of controls. The DTAB at 0.5% was assayed on both days (1 and 2).
The experiment was performed as detailed in Example 1. The average relative light unit values and the percent of ATP remaining values are listed below in Table F and G respectively.
The log of the percent of ATP remaining after original timepoint values from Table E and Table G were plotted on the y axis against time (in minutes) on the x axis. The slope of the line generated by these values in the presence of detergent was divided by the slope of the line generated by the values in the absence of detergent (lysate control) resulting in the Relative ATPase Activity values listed below in Table H.
A relative activity value of 1.0 or greater indicates 100% cellular ATPase activity at the concentration of detergent tested. A relative activity value of 0.5 indicates a two-fold (or 50%) decrease in the level of cellular ATPase activity at the concentration of detergent tested when compared to the ATPase activity level in the absence of the detergent. A relative activity value of 0.2 indicates a five-fold (or 80%) decrease in the level of cellular ATPase activity at the concentration of detergent tested when compared to the ATPase activity level in the absence of the detergent.

C[C@H](CCC(=O)NCCC[N+](C)(C)CC(O)CS(=O)(=O)[O-])[C@H]1CC[C@H]2[C@@H]3[C@H](O)C[C@@H]4C[C@H](O)CC[C@]4(C)[C@H]3C[C@H](O)[C@]12C (stereo partly drawn) [CHAPSO, 3-([3-Cholamidopropyl]dimethylammonio)-2-hydroxy-1-propanesulfonate]
Average Relative Light Unit Values (0.05% detergent, 5 min): 6396.53 rlu | Percent ATP Remaining (0.05% detergent, 5 min): 100% | Average Relative Light Unit Values (0.05% detergent, 75 min): 2424.54 rlu | Percent ATP Remaining (0.05% detergent, 75 min): 37.9% | Average Relative Light Unit Values (0.05% detergent, 169 min): 1124.83 rlu | Percent ATP Remaining (0.05% detergent, 169 min): 17.6% | Average Relative Light Unit Values (0.05% detergent, 222 min): 480.09 rlu | Percent ATP Remaining (0.05% detergent, 222 min): 7.5% | Average Relative Light Unit Values (0.05% detergent, 260 min): 238.80 rlu | Percent ATP Remaining (0.05% detergent, 260 min): 3.7% | Relative ATPase Activity, slope det/slope lysate (0.05 percent detergent): 1.080 | Slope (log percent ATP remaining vs time in minutes) (0.05 percent detergent): −0.0057 | Average Relative Light Unit Values (0.1% detergent, 5 min): 6549.85 rlu | Percent ATP Remaining (0.1% detergent, 5 min): 100% | Average Relative Light Unit Values (0.1% detergent, 75 min): 2584.56 rlu | Percent ATP Remaining (0.1% detergent, 75 min): 39.5% | Average Relative Light Unit Values (0.1% detergent, 169 min): 1210.14 rlu | Percent ATP Remaining (0.1% detergent, 169 min): 18.5% | Average Relative Light Unit Values (0.1% detergent, 222 min): 558.69 rlu | Percent ATP Remaining (0.1% detergent, 222 min): 8.5% | Average Relative Light Unit Values (0.1% detergent, 260 min): 280.84 rlu | Percent ATP Remaining (0.1% detergent, 260 min): 4.3% | Relative ATPase Activity, slope det/slope lysate (0.10 percent detergent): 1.030 | Slope (log percent ATP remaining vs time in minutes) (0.10 percent detergent): −0.0054 | Average Relative Light Unit Values (0.5% detergent, 5 min): 7422.26 rlu | Percent ATP Remaining (0.5% detergent, 5 min): 100% | Average Relative Light Unit Values (0.5% detergent, 75 min): 4089.32 rlu | Percent ATP Remaining (0.5% detergent, 75 min): 55.1% | Average Relative Light Unit Values (0.5% detergent, 169 min): 2581.01 rlu | Percent ATP Remaining (0.5% detergent, 169 min): 34.8% | Average Relative Light Unit Values (0.5% detergent, 222 min): 1460.54 rlu | Percent ATP Remaining (0.5% detergent, 222 min): 19.7% | Average Relative Light Unit Values (0.5% detergent, 260 min): 923.81 rlu | Percent ATP Remaining (0.5% detergent, 260 min): 12.4% | Relative ATPase Activity, slope det/slope lysate (0.50 percent detergent): 0.685 | Slope (log percent ATP remaining vs time in minutes) (0.50 percent detergent): −0.0036 | Average Relative Light Unit Values (1.0% detergent, 5 min): 7160.63 rlu | Percent ATP Remaining (1.0% detergent, 5 min): 100% | Average Relative Light Unit Values (1.0% detergent, 75 min): 3803.84 rlu | Percent ATP Remaining (1.0% detergent, 75 min): 53.1% | Average Relative Light Unit Values (1.0% detergent, 169 min): 2376.31 rlu | Percent ATP Remaining (1.0% detergent, 169 min): 33.2% | Average Relative Light Unit Values (1.0% detergent, 222 min): 1332.97 rlu | Percent ATP Remaining (1.0% detergent, 222 min): 18.6% | Average Relative Light Unit Values (1.0% detergent, 260 min): 840.57 rlu | Percent ATP Remaining (1.0% detergent, 260 min): 11.7% | Relative ATPase Activity, slope det/slope lysate (1.00 percent detergent): 0.703 | Slope (log percent ATP remaining vs time in minutes) (1.00 percent detergent): −0.0037
